Like-named read-outs stand apart in the source and are kept apart here. Square brackets hold non-standard residues; d marks the D form. Peptide text beside a SMILES is read from it. * marks the point of attachment. Dab = NCC[C@H](N)C(=O)O; X1 = CN(C)C/C=C/C(=O)*
Experiments:
PD1:PDL1 interaction = biological target: T1, PD1:PDL1 interaction (Homo sapiens, UniProt Q15116); experiment: PD1/PDL1 immunoblocking ELISA (BPS Bioscience kit cat # 72005); type: binding; details: for LE (ligand efficiency): LE = -RTln(EC50)/HA, HA = non-hydrogen atoms omitting the strap (RWV•••VWE)
T1 construct: purchased BPS Bioscience 72005
T1 sequence (Q15116 25-167 limits assumed): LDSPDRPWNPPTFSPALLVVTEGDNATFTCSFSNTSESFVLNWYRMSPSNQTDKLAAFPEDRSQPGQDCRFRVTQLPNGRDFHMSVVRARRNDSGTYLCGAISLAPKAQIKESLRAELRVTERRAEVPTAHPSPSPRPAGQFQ
Experimental: Original loops with Phe/Trp and their Gly-derived analogs. Experimental EC50 values from inhibitory dose–response curves. Error bars indicate the mean ± SD, (n = 3). […]
SDS -Pages, buffers, and stain were purchased from Fisher
8. Immunoblocking ELISA Assay
Peptide inhibitor stock solutions were prepared in the concentration range of approximately 1-5 mM in DMSO. […]
plate was then washed and blocked with blocking buffer for 1 h at room temperature. Inhibitor solutions (ranging from 0.01 to 100 μM) and a blank solution (DMSO/PBS buffer) were added to designated wells. To initiate the […]
inhibitor solutions. After a 2 h incubation at room temperature, the plate was washed and blocked again for 10 min. Streptavidin-HRP (diluted at 1 : 1000) was added and incubated for 1 h at room temperature with gentle shaking. The plate was washed and blocked once more for 10 min. ELISA ECL substrate was added, and the resulting chemoluminescence was immediately measured in a luminometer (FLUOstar OPTIMA, BMG Labtech).
The luminescence value of the blank was subtracted from all readings according to the manufacturer's

[1] = Variable-temperature CD melting curves (CD-melts at 228±2 nm and 202±2 nm), individual and global two-state fits; type: physicochemical; details: for ΔGF0: CD-melt at 228±2 nm, individual two-state Gibbs-Helmholtz fit (Origin 9.0), phosphate buffer 15 mM pH 6.5 ± MeOH; for ΔGF0 / DHm (fitted value, results from OriginPro) / Tm (fitted value, results from OriginPro): 0-95 °C; for Tm / Hairpin %-fold 291K / Hairpin %-fold 310K: Table S5, individual fit; for Tm: 228±2 nm; for -TΔSF0 / ΔCpF0 / ΔHF0 / ΔHm: as E16; for VT-CD %-fold: folded fraction (χF) at 25 °C from CD-melts, (R) regular / (B) bulged fold; for VT-CD %-fold / VT-CD Tm (°C): phosphate buffer 15 mM pH 6.5, up to 20% MeOH; for %fold 291K: fraction folded at 291 K from two-state fit of CD-melt; for VT-CD Tm (°C): melting temperature from CD-melts; for DHm (fitted value, OriginPro two-state fit of CD-melt) / Tm (fitted value, OriginPro two-state fit of CD-melt): variable-temperature CD melt 0-95 °C, θ - θcoil(95) vs T, l = 0.1 cm, individual two-state fit; for DHm (fitted value, results from OriginPro) / Tm (fitted value, results from OriginPro): two-state fit of the CD melt θ - θcoil(95) vs T, peptide c 3.2e-5 to 5e-5 M
Experimental: Recently, our laboratory brought forward a novel synthetic technology for the synthesis of acyclic β-hairpins with long loops. […] To compare hairpins’ stability, both regular (R) and bulged (B) scaffolds were crafted around a flexible 10-residue model loop (G4K2G4) and analyzed by CD (circular dichroism) spectroscopy (Fig. 2(A), see ESI, ^† Table S5). The […] structure of these model scaffolds 1avs.2a in solution were recorded in the far-UV CD spectra. […] The CD-exciton intensity was therefore used as a global probe to determine the %-folding of ADAPTins and to obtain melting curves corresponding to the hairpin fraying mechanism upon a gradual increase of temperature (0 to 95 °C).[68] […] In addition, NMR (nuclear magnetic resonance) chemical shifts were measured to determine variations in backbone […] structures (Fig. 2(B)). Secondary chemical shift deviations (CSDs) were calculated against random coil values[69] for both ADAPTin scaffolds 1vs.2 to verify that the hairpins were folded and if any variation of conformational rigidity exist within the loops. […]
Mass Spectrometer coupled to a Vanquish™ Neo UHPLC System (Thermo Scientific™). Peptide solutions for circular dichroism (CD) were prepared within a concentration range of 15-120 µM in a phosphate buffer (15 mM, […]
measured accurately using a JASCO V-670 spectrophotometer relied on the combined molar absorptivity of Trp (ε280 = 5580 M-1 .cm-1 per Trp) and Tyr (ε280 = 1280 M-1 .cm-1 per Tyr) to determine each sample's concentration.
CD spectra were recorded using a JASCO J-810 Spectropolarimeter equipped with a temperature controller module JASCO PFD-425S. Raw CD melting curves were processed in SpectraGryph, and fitting was performed in OriginPro 9.0 (Originlab Corporation, U.S.A.). NMR samples were prepared by reconstituting freeze -dried peptides (~ 1-5 mg) in mixture of water and DMSO -d6 (90:10 v/v) using 2,2-dimethyl-2-silapentane-5-sulfonate (DSS) as internal standard for chemical shifts (0 ppm), and spectra were recorded at 291 K (18 °C) unless otherwise stated. Chemical shifts ( δ) are reported in ppm. Samples for NMR experiments were prepared in a range of 3-10 mM of peptide in solution unless otherwise noted.

SMILES | LE (ligand efficiency) (PD1:PDL1 interaction) | ΔGF0 [1] [kcal/mol] | Tm [1] [oC] | Hairpin %-fold 291K ([1]; 291 K) [%] | Hairpin %-fold 310K [1] [%] | -TΔSF0 [1] [kcal/mol] | ΔCpF0 [1] [cal.deg-1.mol-1] | ΔHF0 [1] [kcal/mol] | ΔHm [1] [kcal/mol] | VT-CD %-fold [1] | %fold 291K [1] [%] | VT-CD Tm (°C) [1] [°C] | DHm (fitted value, OriginPro two-state fit of CD-melt) [1] [kcal/mol] | Tm (fitted value, OriginPro two-state fit of CD-melt) [1] [K] | DHm (fitted value, results from OriginPro) ([1]; l 0.1 cm) [kcal/mol] | Tm (fitted value, results from OriginPro) ([1]; l 0.1 cm) [K] | further results
CSCC[C@H](NC(=O)[C@H](CC(=O)O)NC(=O)CNC(=O)[C@H](CCCNC(=N)N)NC(=O)[C@H](Cc1ccc(O)cc1)NC(=O)[C@H](CC(=O)O)NC(=O)[C@H](CCCNC(=N)N)NC(=O)[C@H](CCCNC(=N)N)NC(=O)[C@H](C)NC(=O)[C@@H](NC(=O)[C@H](Cc1c[nH]c2ccccc12)NC(=O)[C@@H](N)CCCNC(=N)N)C(C)C)C(=O)NCC(=O)N[C@@H](Cc1ccccc1)C(=O)N[C@@H](CC(=O)O)C(=O)N[C@@H](Cc1ccc(O)cc1)C(=O)N[C@@H](Cc1c[nH]c2ccccc12)C(=O)N[C@@H](Cc1c[nH]cn1)C(=O)N[C@@H](Cc1c[nH]c2ccccc12)C(=O)N[C@@H](CCC(=O)O)C(=O)O [2d] (H-RWVARRDYRGDMGFDYWHWE-OH) | 0.06 | -1.59 ± 0.01 | 50.9 | 97 ± 1 | 80 ± 1 | 18.2 ± 0.2 | 0 | -19.8 ± 0.2 | -19.8 ± 0.07 | 97% (B) | 97 | 51 | -19.8087 | 324.048 | – | – | –
CC(C)[C@H](NC(=O)[C@H](Cc1c[nH]c2ccccc12)NC(=O)[C@@H](N)CCCNC(=N)N)C(=O)N[C@@H](C)C(=O)N[C@@H](CCCNC(=N)N)C(=O)N[C@@H](CCCNC(=N)N)C(=O)N[C@@H](CC(=O)O)C(=O)N[C@@H](Cc1ccc(O)cc1)C(=O)N[C@@H](CCCNC(=N)N)C(=O)N[C@@H](Cc1ccccc1)C(=O)N[C@@H](CC(=O)O)C(=O)N[C@@H](CCNC(=O)/C=C/CN(C)C)C(=O)NCC(=O)N[C@@H](Cc1ccccc1)C(=O)N[C@@H](CC(=O)O)C(=O)N[C@@H](Cc1ccc(O)cc1)C(=O)N[C@@H](Cc1c[nH]c2ccccc12)C(=O)N[C@H](C(=O)N[C@@H](Cc1c[nH]c2ccccc12)C(=O)N[C@@H](CCC(=O)O)C(=O)O)C(C)C [2cc] (H-RWVARRDYRFD[Dab](X1)GFDYWVWE-OH; N-terminus assumed) | 0.13 | -0.93 ± 0.002 | 48.7 | 87 ± 1 | 70 ± 1 | 8.50 ± 0.04 | -268 ± 2 | -9.43 ± 0.04 | -15.8 ± 0.04 | – | – | – | – | – | – | – | Tm 228 nm Glob. ([1]; global fit (shared maximum molar ellipticity), 228 nm): 51.7 oC; Tm 202 nm Glob. ([1]; global fit, 202 nm): 9.7 oC; χF (291 K) 202 nm Glob. ([1]; global fit, 202 nm, 291 K): 47%; χF (291 K) 228 nm Glob. ([1]; global fit, 228 nm, 291 K): 95%; χF (291 K) 202 nm Indiv. ([1]; individual fit, 202 nm, 291 K): 83%; χF (291 K) 228 nm Indiv. ([1]; individual fit, 228 nm, 291 K): 88%; Tm 228 nm Indiv. ([1]; individual fit, exciton band 228 nm): 49.8 oC; Tm 202 nm Indiv. ([1]; individual fit, β-bulge band 202 nm): 44.3 oC; DHm (fitted value, OriginPro) ([1]; two-state fit of the CD melt (θ - θcoil(95) vs T, 0-95 °C), l 0.1 cm, enthalpy of folding at Tm): -15.8096 kcal/mol
CC(C)[C@H](NC(=O)CNC(=O)[C@H](CO)NC(=O)[C@H](CO)NC(=O)[C@H](CC(=O)O)NC(=O)[C@@H]1CCCN1C(=O)[C@H](CO)NC(=O)[C@H](Cc1c[nH]c2ccccc12)NC(=O)[C@@H](NC(=O)[C@H](Cc1c[nH]c2ccccc12)NC(=O)[C@@H](N)CCCNC(=N)N)C(C)C)C(=O)N[C@@H](C)C(=O)N[C@@H](Cc1ccc(O)cc1)C(=O)N[C@@H](Cc1c[nH]c2ccccc12)C(=O)N[C@H](C(=O)N[C@@H](Cc1c[nH]c2ccccc12)C(=O)N[C@@H](CCC(=O)O)C(=O)O)C(C)C [1e] (H-RWVWSPDSSGVAYWVWE-OH) | 0.10 | -0.90 ± 0.01 | 58.3 | 85 ± 1 | 74 ± 1 | 5.60 ± 0.06 | -148 ± 4 | -6.50 ± 0.06 | -11.5 ± 0.05 | 85% (R) | – | 58 | – | – | -11.4534 | 331.438 | EC50 (PD1:PDL1 interaction; ELISA, mean of three independent experiments, read-out: EC50 Value): 270 nM
CSCC[C@H](NC(=O)[C@H](CC(=O)O)NC(=O)CNC(=O)[C@H](CCCNC(=N)N)NC(=O)[C@H](Cc1ccc(O)cc1)NC(=O)[C@H](CC(=O)O)NC(=O)[C@H](CCCNC(=N)N)NC(=O)[C@H](CCCNC(=N)N)NC(=O)[C@H](C)NC(=O)[C@@H](NC(=O)[C@H](Cc1c[nH]c2ccccc12)NC(=O)[C@@H](N)CCCNC(=N)N)C(C)C)C(=O)NCC(=O)N[C@@H](Cc1ccccc1)C(=O)N[C@@H](CC(N)=O)C(=O)N[C@@H](Cc1ccc(O)cc1)C(=O)N[C@@H](Cc1c[nH]c2ccccc12)C(=O)N[C@H](C(=O)N[C@@H](Cc1c[nH]c2ccccc12)C(=O)N[C@@H](CCC(=O)O)C(=O)O)C(C)C [2j] (H-RWVARRDYRGDMGFNYWVWE-OH) | 0.07 | -1.63 ± 0.01 | 57.8 | 97 ± 1 | 84 ± 1 | 14.3 ± 0.09 | -29 ± 3 | -15.9 ± 0.02 | -16.8 ± 0.03 | 97% (B) | – | 58 | – | – | -16.8394 | 330.952 | EC50 (PD1:PDL1 interaction; PD1:PDL1 inhibition EC50, ELISA, PDL1-coated plate, biotin-labeled human PD-1, 2 h rt, chemiluminescence, Hill fit, mean ± SD, n = 3, SD): 100 ± 10 nM
CSCC[C@H](NC(=O)[C@H](CC(=O)O)NC(=O)[C@H](Cc1ccccc1)NC(=O)[C@H](CCCNC(=N)N)NC(=O)[C@H](Cc1ccc(O)cc1)NC(=O)[C@H](CC(=O)O)NC(=O)[C@H](CCCNC(=N)N)NC(=O)[C@H](CCCNC(=N)N)NC(=O)[C@H](C)NC(=O)[C@@H](NC(=O)[C@H](Cc1c[nH]c2ccccc12)NC(=O)[C@@H](N)CCCNC(=N)N)C(C)C)C(=O)NCC(=O)N[C@@H](Cc1ccccc1)C(=O)N[C@@H](CC(=O)O)C(=O)N[C@@H](Cc1ccc(O)cc1)C(=O)N[C@@H](Cc1c[nH]c2ccccc12)C(=O)N[C@@H](Cc1c[nH]cn1)C(=O)N[C@@H](Cc1c[nH]c2ccccc12)C(=O)N[C@@H](CCC(=O)O)C(=O)O [2e] (H-RWVARRDYRFDMGFDYWHWE-OH) | 0.06 | 0.088 ± 0.02 | 3.96 | 48 ± 1 | 42 ± 1 | 2.40 ± 0.02 | -107±5 | -2.31 ± 0.03 | -0.070 ± 0.6 | 48% (B) | 48 | 4 | -0.0700474 | 277.107 | – | – | –

From publication PMC11562385 (RSC Chemical Biology, 2024)
